From ChEMBL document CHEMBL5108002, “Design, synthesis, and biological evaluation of novel 7-substituted 10,11-methylenedioxy-camptothecin derivatives against drug-resistant small-cell lung cancer in vitro and in vivo” (Eur J Med Chem, 2022)
Blank lines part the entries; values can stand above or below the molecule they belong to. The source made the active and inactive calls. The calls are words filed in the database; no cut-off is given here.

Key:
NCI-H446 [1] = test: Induction of apoptosis in human NCI-H446 cells assessed as increase in cleaved-caspase 9 protein expression at 0.1 to 100 nM measured after 24 hrs by Western blot analysis; type: functional, cell-based; details: dose 0.1-100 nM
2008 = test: Antiproliferative activity against human 2008 cells assessed as inhibition of cell growth incubated for 72 hrs by SRB assay; type: functional, cell-based; details: Homo sapiens, 2008, 72 h
Bel-7402 = test: Antiproliferative activity against human Bel-7402 cells assessed as inhibition of cell growth incubated for 72 hrs by SRB assay; type: functional, cell-based; details: Bel-7402, 72 h
NCI-H69 = test: Antiproliferative activity against human NCI-H69 cells assessed as inhibition of cell growth incubated for 72 hrs by SRB assay; type: functional, cell-based; details: NCI-H69, 72 h
NCI-H446 [2] = test: Induction of apoptosis in human NCI-H446 cells assessed as dead cells at 0.1 nM incubated for 24 hrs by AnnexinV-FITC/PI staining based flow cytometry analysis (reference value: 0.33 %); type: functional
NCI-H446 [3] = test: Induction of apoptosis in human NCI-H446 cells assessed as late apoptotic cells at 1 nM incubated for 24 hrs by AnnexinV-FITC/PI staining based flow cytometry analysis (reference value: 1.55 %); type: functional
SH-SY5Y = test: Antiproliferative activity against human SH-SY5Y cells assessed as inhibition of cell growth incubated for 72 hrs by SRB assay; type: functional, cell-based
NCI-H446 [4] = test: Induction of apoptosis in human NCI-H446 cells assessed as early apoptotic cells at 10 nM incubated for 24 hrs by AnnexinV-FITC/PI staining based flow cytometry analysis (reference value: 2.43 %); type: functional
H69AR [5] = test: Induction of apoptosis in human NCI-H69AR cells assessed as early apoptotic cells at 1 nM incubated for 24 hrs by AnnexinV-FITC/PI staining based flow cytometry analysis (reference value: 0.35 %); type: functional
H69AR [6] = test: Induction of apoptosis in human NCI-H69AR cells assessed as late apoptotic cells at 100 nM incubated for 24 hrs by AnnexinV-FITC/PI staining based flow cytometry analysis (reference value: 2.99 %); type: functional
NCI-H446 [7] = test: Induction of apoptosis in human NCI-H446 cells assessed as dead cells at 1 nM incubated for 24 hrs by AnnexinV-FITC/PI staining based flow cytometry analysis (reference value: 0.33 %); type: functional
NCI-H446 [8] = test: Induction of apoptosis in human NCI-H446 cells assessed as early apoptotic cells at 0.1 nM incubated for 24 hrs by AnnexinV-FITC/PI staining based flow cytometry analysis (reference value: 2.43 %); type: functional
MCF7 = test: Antiproliferative activity against human MCF7 cells assessed as inhibition of cell growth incubated for 72 hrs by SRB assay; type: functional, cell-based; details: MCF7, 72 h
NCI-H446 [9] = test: Induction of apoptosis in human NCI-H446 cells assessed as dead cells at 10 nM incubated for 24 hrs by AnnexinV-FITC/PI staining based flow cytometry analysis (reference value: 0.33 %); type: functional
NCI-H446 [10] = test: Induction of apoptosis in human NCI-H446 cells assessed as increase in cleaved-PARP protein expression at 0.1 to 100 nM measured after 24 hrs by Western blot analysis; type: functional, cell-based; details: dose 0.1-100 nM
NCI-H446 [11] = test: Induction of apoptosis in human NCI-H446 cells assessed as late apoptotic cells at 0.1 nM incubated for 24 hrs by AnnexinV-FITC/PI staining based flow cytometry analysis (reference value: 1.55 %); type: functional
NCI-H446 [12] = test: Induction of apoptosis in human NCI-H446 cells assessed as increase in cleaved-caspase 3 protein expression at 0.1 to 100 nM measured after 24 hrs by Western blot analysis; type: functional, cell-based; details: dose 0.1-100 nM
[13] = Resistance index, ratio of IC50 for antiproliferative activity against etoposide/cisplatin combination-resistant human NCI-H446 cells to IC50 for antiproliferative activity against human NCI-H446 cells; type: functional
SW-620 = test: Antiproliferative activity against human SW-620 cells assessed as inhibition of cell growth incubated for 72 hrs by SRB assay; type: functional, cell-based; details: SW-620, 72 h
H69AR [14] = test: Induction of apoptosis in human NCI-H69AR cells assessed as dead cells at 100 nM incubated for 24 hrs by AnnexinV-FITC/PI staining based flow cytometry analysis (reference value: 1.92 %); type: functional
H69AR [15] = test: Induction of apoptosis in human NCI-H69AR cells assessed as late apoptotic cells at 1 nM incubated for 24 hrs by AnnexinV-FITC/PI staining based flow cytometry analysis (reference value: 2.99 %); type: functional
HepG2 = test: Antiproliferative activity against human HepG2 cells assessed as inhibition of cell growth incubated for 72 hrs by SRB assay; type: functional, cell-based; details: HepG2, 72 h
H69AR [16] = test: Antiproliferative activity against human NCI-H69AR cells assessed as inhibition of cell growth incubated for 72 hrs by SRB assay; type: functional, cell-based
H69AR [17] = test: Induction of apoptosis in human NCI-H69AR cells assessed as dead cells at 10 nM incubated for 24 hrs by AnnexinV-FITC/PI staining based flow cytometry analysis (reference value: 1.92 %); type: functional
NCI-H446 [18] = test: Antiproliferative activity against Irinotecan-resistant human NCI-H446 cells assessed as inhibition of cell growth incubated for 72 hrs by SRB assay; type: functional, cell-based; details: NCI-H446, 72 h
NCI-H446 [19] = test: Induction of apoptosis in human NCI-H446 cells assessed as early apoptotic cells at 1 nM incubated for 24 hrs by AnnexinV-FITC/PI staining based flow cytometry analysis (reference value: 2.43 %); type: functional
NCI-H446 [20] = test: Antiproliferative activity against etoposide/cisplatin combination-resistant human NCI-H446 cells assessed as inhibition of cell growth incubated for 72 hrs by SRB assay; type: functional, cell-based; details: NCI-H446, 72 h
H69AR [21] = test: Induction of apoptosis in human NCI-H69AR cells assessed as late apoptotic cells at 10 nM incubated for 24 hrs by AnnexinV-FITC/PI staining based flow cytometry analysis (reference value: 2.99 %); type: functional
H69AR [22] = test: Induction of apoptosis in human NCI-H69AR cells assessed as early apoptotic cells at 100 nM incubated for 24 hrs by AnnexinV-FITC/PI staining based flow cytometry analysis (reference value: 0.35 %); type: functional
NCI-H446 [23] = test: Antitumor activity against human NCI-H446 cells xenografted in BALB/c nude mouse assessed as tumor growth inhibition at 3 mg/kg, IG administered once a week for 28 days by electronic caliper method relative to control; type: functional; details: NCI-H446, po, 672 h, time 28 day, read-out: TGI
U-87 MG = test: Antiproliferative activity against human U87 cells assessed as inhibition of cell growth incubated for 72 hrs by SRB assay; type: functional, cell-based, U-87MG ATCC
NCI-H446 [24] = test: Induction of apoptosis in human NCI-H446 cells assessed as late apoptotic cells at 10 nM incubated for 24 hrs by AnnexinV-FITC/PI staining based flow cytometry analysis (reference value: 1.55 %); type: functional
H69AR [25] = test: Induction of apoptosis in human NCI-H69AR cells assessed as early apoptotic cells at 10 nM incubated for 24 hrs by AnnexinV-FITC/PI staining based flow cytometry analysis (reference value: 0.35 %); type: functional
[26] = Resistance index, ratio of IC50 for antiproliferative activity against Irinotecan-resistant human NCI-H446 cells to IC50 for antiproliferative activity against human NCI-H446 cells; type: functional
H69AR [27] = test: Induction of apoptosis in human NCI-H69AR cells assessed as dead cells at 1 nM incubated for 24 hrs by AnnexinV-FITC/PI staining based flow cytometry analysis (reference value: 1.92 %); type: functional
NCI-H446 [28] = test: Antitumor activity against Irinotecan-resistant human NCI-H446 cells xenografted in BALB/c nude mouse assessed as tumor weight at 100 mg/kg, IG administered once a week and measured 3 times a week for 35 days; type: functional; details: time 35 day

Compound: CC[C@@]1(O)C(=O)OCc2c1cc1n(c2=O)Cc2cc3cc4c(cc3nc2-1)OCO4
Activity (NCI-H446 [1]): Active | IC50 2008: 37.3 nM | IC50 (Bel-7402): 21.8 nM | IC50 (NCI-H69): 15.8 nM | Activity (NCI-H446 [2]): 0.34% | Activity (NCI-H446 [3]): 1.83% | IC50 (SH-SY5Y): 24.2 nM | Activity (NCI-H446 [4]): 14.27% | Activity (H69AR [5]): 0.58% | Activity (H69AR [6]): 32.78% | Activity (NCI-H446 [7]): 0.97% | Activity (NCI-H446 [8]): 3.93% | IC50 (MCF7): 63.3 nM | Activity (NCI-H446 [9]): 0.37% | Activity (NCI-H446 [10]): Active | Activity (NCI-H446 [11]): 0.83% | Activity (NCI-H446 [12]): Active | Ratio IC50 [13]: 0.78 | IC50 (SW-620): 0.93 nM | Activity (H69AR [14]): 1.56% | Activity (H69AR [15]): 5.73% | IC50 (HepG2): 10.6 nM | IC50 (H69AR [16]): 6.29 nM | Activity (H69AR [17]): 2.87% | IC50 (NCI-H446 [18]): 18.5 nM | Activity (NCI-H446 [19]): 9.64% | IC50 (NCI-H446 [20]): 6.61 nM | Activity (H69AR [21]): 7.33% | Activity (H69AR [22]): 1.3% | inhibition in vivo at 3 mg/kg (NCI-H446 [23]): 27.7% | IC50 (U-87 MG): 109 nM | Activity (NCI-H446 [24]): 2.82% | Activity (H69AR [25]): 0.43% | Ratio IC50 [26]: 2.09 | Activity (H69AR [27]): 1.72%

Compound: CC[C@@]1(O)C(=O)OCc2c1cc1n(c2=O)Cc2c-1nc1cc3c(cc1c2-c1cc(C(F)(F)F)cc(C(F)(F)F)c1)OCO3
IC50 2008: 49.7 nM | IC50 (SW-620): 1.44 nM

IC50 (NCI-H446 [18]): 5.71 nM
Compound: COc1cccc2c1C(=O)c1c(O)c3c(c(O)c1C2=O)C[C@@](O)(C(=O)CO)C[C@@H]3O[C@H]1C[C@H](N)[C@H](O)[C@H](C)O1 [DOXORUBICIN]
Ratio IC50 [13]: 46.56 | Ratio IC50 [26]: 14.64

Compound: CC[C@@]1(O)C(=O)OCc2c1cc1n(c2=O)Cc2c-1nc1cc3c(cc1c2-c1ccncc1)OCO3
IC50 2008: 93.5 nM | IC50 (SW-620): 2.67 nM

Compound: CC[C@@]1(O)C(=O)OCc2c1cc1n(c2=O)Cc2c-1nc1cc3c(cc1c2-c1ccsc1)OCO3
IC50 2008: 39.2 nM | IC50 (SW-620): 0.36 nM

IC50 (SW-620): > 500 nM
Compound: CC[C@@]1(O)C(=O)OCc2c1cc1n(c2=O)Cc2cc3c(CN(C)C)c(O)ccc3nc2-1 [TOPOTECAN]
IC50 2008: > 500 nM

Compound: CC[C@@]1(O)C(=O)OCc2c1cc1n(c2=O)Cc2c-1nc1cc3c(cc1c2-c1ccco1)OCO3
IC50 2008: 0.16 nM | IC50 (SW-620): 102 nM

IC50 (NCI-H446 [18]): 192 nM
Compound: COc1cc([C@@H]2c3cc4c(cc3[C@@H](O[C@@H]3O[C@@H]5CO[C@@H](C)O[C@H]5[C@H](O)[C@H]3O)[C@H]3COC(=O)[C@H]23)OCO4)cc(OC)c1O [ETOPOSIDE]
Ratio IC50 [13]: 19.28 | Ratio IC50 [26]: 11.48

IC50 (NCI-H446 [18]): 0.15 nM | IC50 (NCI-H446 [20]): 0.13 nM
Compound: CCc1c2c(nc3ccc(OC(=O)N4CCC(N5CCCCC5)CC4)cc13)-c1cc3c(c(=O)n1C2)COC(=O)[C@]3(O)CC [IRINOTECAN]
Activity (NCI-H446 [28]): 2.28 g | Ratio IC50 [13]: 13 | inhibition in vivo at 3 mg/kg (NCI-H446 [23]): 26.8% | Ratio IC50 [26]: 15

Compound: CC[C@@]1(O)C(=O)OCc2c1cc1n(c2=O)Cc2c-1nc1cc3c(cc1c2-c1ccc(CO)cc1)OCO3
IC50 2008: 7.67 nM | IC50 (SW-620): 0.28 nM

Compound: CC[C@@]1(O)C(=O)OCc2c1cc1n(c2=O)Cc2c-1nc1cc3c(cc1c2-c1cccs1)OCO3
IC50 2008: 4.03 nM | IC50 (SW-620): 0.29 nM

Compound: CC[C@@]1(O)C(=O)OCc2c1cc1n(c2=O)Cc2c-1nc1cc3c(cc1c2-c1cnn(C)c1)OCO3
IC50 2008: 22.4 nM | IC50 (SW-620): 0.84 nM

Compound: CC[C@@]1(O)C(=O)OCc2c1cc1n(c2=O)Cc2c-1nc1cc3c(cc1c2-c1cccnc1)OCO3
IC50 2008: 11.6 nM | IC50 (SW-620): 0.17 nM
